# Test results taken from patent US7101667B2, “Lanthanide binding tags” (Massachusetts Institute of Technology, priority 2001, dated 2006).
# Legend:
# [1] = Lanthanide affinity of free LBT and HIS-LBT-Ub by calorimetry; format: binding; conditions: read-out: KD for lanthanide ions
# Source text: The purified LBT-protein conjugates were further studied to assess whether the fluorescence and binding properties of the LBT were preserved in the protein conjugates.
# [2] = Tb^3+ affinity of LBT-S-peptide fusions by isothermal titration calorimetry; format: binding
# Source text: The affinity of the LBT site for terbium in the context of the fusion peptide was also unchanged when compared with the unmodified LBT sequences with affinities in the low μM range.
# [3] = Steady-state terbium fluorescence of LBT-S-peptide fusions compared to LBT1; format: physicochemical
# Source text: Steady-state fluorescence experiments of the LBT-S-peptide fusions indicated minimal impact of the fusion on the terbium fluorescence compared to LBT1 (see Table 2).
# [4] = Tb^3+ binding affinity of the disulfide constrained LBT
# Experimental: Affinity is determined by titration with lanthanide and detection using fluorescence, circular dichroism, NMR or calorimetry. In the case of tightly binding sequences, it may be necessary to employ competition experiments.
# The disulfide constained LBT, ACA-[…]-CAA (known as CC2) binds to Tb^3+ with a KD of 300 nM, an order of magnitude more tightly than other reported Ca-binding peptides. (Kanellis, et al. Arch. Biochem. Biophys. 1983, 220, 530-540; Lopez, et al. Proc. Natl. Acad. Sci. USA 2002, 99, 1298-1303).
# [5] = target: T1, LBT-GPPP-S-Peptide
# T1 chain: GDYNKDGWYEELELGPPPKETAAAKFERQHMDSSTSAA
# [6] = target: LBT-PP-S-Peptide
# [7] = target: T2, RNAse S-protein (bovine, UniProt P61823 47-150); assay: isothermal titration calorimetry
# T2 construct: range 21-124; Numbers count on mature RNAse A; also called Pro-S
# T2 sequence (looked up): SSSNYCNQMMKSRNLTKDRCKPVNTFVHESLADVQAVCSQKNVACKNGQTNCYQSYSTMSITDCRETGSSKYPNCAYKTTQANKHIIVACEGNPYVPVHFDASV
# [8] = read-out: KD Tb^3+ S-Peptide, fusion peptide alone
# [9] = read-out: KD Tb^3+ [S-Peptide/S-protein], peptide complexed with S-protein
Molecule,"Kd [2, 8] [µM]","Kd [2, 9] [µM]",Fluorescence Relative to LBT1 [3] [%],also measured
GDYNKDGWYEELEL [LBT1],–,–,–,Kd [1]: 5 µM; KD Tb^3+ S-Peptide ([2]; fusion peptide alone): low μM
CSCC[C@H](NC(=O)[C@H](Cc1c[nH]cn1)NC(=O)[C@H](CCC(N)=O)NC(=O)[C@H](CCCNC(=N)N)NC(=O)[C@H](CCC(=O)O)NC(=O)[C@H](Cc1ccccc1)NC(=O)[C@H](CCCCN)NC(=O)[C@H](C)NC(=O)[C@H](C)NC(=O)[C@H](C)NC(=O)[C@@H](NC(=O)[C@H](CCC(=O)O)NC(=O)[C@H](CCCCN)NC(=O)[C@@H]1CCCN1C(=O)[C@@H]1CCCN1C(=O)[C@@H]1CCCN1C(=O)CNC(=O)[C@H](CC(C)C)NC(=O)[C@H](CCC(=O)O)NC(=O)[C@H](CC(C)C)NC(=O)[C@H](CCC(=O)O)NC(=O)[C@H](CCC(=O)O)NC(=O)[C@H](Cc1ccc(O)cc1)NC(=O)[C@H](Cc1c[nH]c2ccccc12)NC(=O)CNC(=O)[C@H](CC(=O)O)NC(=O)[C@H](CCCCN)NC(=O)[C@H](CC(N)=O)NC(=O)[C@H](Cc1ccc(O)cc1)NC(=O)[C@H](CC(=O)O)NC(=O)CN)[C@@H](C)O)C(=O)N[C@@H](CC(=O)O)C(=O)N[C@@H](CO)C(=O)N[C@@H](CO)C(=O)N[C@H](C(=O)N[C@@H](CO)C(=O)N[C@@H](C)C(=O)N[C@@H](C)C(=O)O)[C@@H](C)O [LBT-GPPP-S-Peptide],6.6,6.7,96,–
CSCC[C@H](NC(=O)[C@H](Cc1c[nH]cn1)NC(=O)[C@H](CCC(N)=O)NC(=O)[C@H](CCCNC(=N)N)NC(=O)[C@H](CCC(=O)O)NC(=O)[C@H](Cc1ccccc1)NC(=O)[C@H](CCCCN)NC(=O)[C@H](C)NC(=O)[C@H](C)NC(=O)[C@H](C)NC(=O)[C@@H](NC(=O)[C@H](CCC(=O)O)NC(=O)[C@H](CCCCN)NC(=O)[C@@H]1CCCN1C(=O)[C@@H]1CCCN1C(=O)[C@H](CC(C)C)NC(=O)[C@H](CCC(=O)O)NC(=O)[C@H](CC(C)C)NC(=O)[C@H](CCC(=O)O)NC(=O)[C@H](CCC(=O)O)NC(=O)[C@H](Cc1ccc(O)cc1)NC(=O)[C@H](Cc1c[nH]c2ccccc12)NC(=O)CNC(=O)[C@H](CC(=O)O)NC(=O)[C@H](CCCCN)NC(=O)[C@H](CC(N)=O)NC(=O)[C@H](Cc1ccc(O)cc1)NC(=O)[C@H](CC(=O)O)NC(=O)CN)[C@@H](C)O)C(=O)N[C@@H](CC(=O)O)C(=O)N[C@@H](CO)C(=O)N[C@@H](CO)C(=O)N[C@H](C(=O)N[C@@H](CO)C(=O)N[C@@H](C)C(=O)N[C@@H](C)C(=O)O)[C@@H](C)O [LBT-PP-S-Peptide],3.3,9.6,86,–
"ACA-DYNKDGWYEELE-CAA [CC2, cysteine constrained variant of LBT1]",–,–,–,Kd [4]: 0.3 µM
RNAse S-protein (protein) SSSNYCNQMMKSRNLTKDRCKPVNTFVHESLADVQAVCSQKNVACKNGQTNCYQSYSTMSITDCRETGSSKYPNCAYKTTQANKHIIVACEGNPYVPVHFDASV,–,–,–,catalytic activity of the reconstituted enzymes (cleavage of a fluorescent RNA substrate) [5]: the S-protein/LBT-S-peptide construct has similar catalytic activity to the native RNAse S in the absence of Tb^+3; catalytic activity of the reconstituted enzymes (cleavage of a fluorescent RNA substrate) [6]: the S-protein/LBT-S-peptide construct has similar catalytic activity to the native RNAse S in the absence of Tb^+3
GDYNKDGWYEELELGPPPKETAAAKFERQHMDSSTSAA (also called LBT-S-peptide fusion; LBT tagged S-peptide analog) [LBT-GPPP-S-Peptide],–,–,–,Kd [7]: 0.3 µM
